Reference: US12303591B2, “Tumescent infiltration drug delivery of high subcutaneous drug concentrations with prolonged local and systemic effects and minimal local or systemic toxicity” (priority 2015, dated 2025)
Converted amounts (≈) assume the structure as drawn. “And” between values parts separate entries of the source, which are not always exact repeats. Equal entries are not always repeated. Where two headings read alike, the source gives them in different places.

Assays:
[1] = Safety of tumescent drug delivery: subcutaneous infiltration of tumescent acyclovir and gentamicin; assay type: in vivo, human
Herpes zoster = settings: without repeat dosing
[2] = Adverse effects / tissue toxicity after subcutaneous tumescent infiltration (TAD trial)
Description: At the time when each sample of TISF was obtained, patients were examined and questioned about signs and symptoms of subcutaneous tissue toxicity including unusual soreness, tenderness, discoloration, swelling at sites of subcutaneous tumescent infiltration. […] One week after TAD patients were questioned by telephone about any signs and symptoms of subcutaneous tissue toxicity at the sites of TAD.

clinical = settings: human, in vivo
[3] = tested on: Staphyloccus aureus (MRSA) ATCC 33592; test: Minimum Inhibitory Concentration (MIC) vs MRSA; settings: Staphylococcus aureus
[4] = tested on: Staphyloccus aureus (MRSA) ATCC 33592; test: Minimum Bactericidal Concentration (MBC) vs MRSA; assay type: cell-based, Staphylococcus aureus
Description: Determinations of MBC followed the method described in “Report on the Working Party on Antibiotic Sensitivity Testing of the British Society of Antimicrobial Chemotherapy: A Guide to Sensitivity Testing.”

platelet function = test: Bleeding time and bleeding area before and after tumescent lidocaine exposure; assay type: in vivo, human
Protocol: The skin of the left and right thigh of a subject is cleaned and allowed to dry. […] Simultaneous 4 mm deep puncture wounds are made to the same area of the left and right thighs with disposable lancets. The puncture sites are blotted with filter paper every 30 seconds, until bleeding stops and the bleeding time for each thigh is recorded. The bleeding times of the left and right thigh are compared to determine if administration of TLAnti increases bleeding time. Normal bleeding time measured by the Duke method is 1 to 3 minutes.
In a preliminary experiment, bleeding time and bleeding area were measured in a patient before and after tumescent lidocaine exposure. […] In contrast, there was a 40% increase in Average Bleeding Area (BA). Bleeding Area (BA) was a more sensitive and a more specific test for platelet function compared to Bleeding Time (BT). […] In other words, TAD may reduce the risk of both post-operative surgical site infection and post-operative thromboembolism.

[5] = 28 mg/kg of tumescent lidocaine
platelet aggregation = settings: cited from earlier work
[6] = IV Lidocaine; neuropathic pain; cited from earlier work
[7] = routine injection; cited from earlier work
[8] = human, in vivo
[9] = IVAD 500 mg; abdominal wall surgery; cited from earlier work
[10] = Phase I pharmacokinetic clinical trial: TAD vs IVAD of cefazolin and metronidazole (TISF and serum); settings: for AUC / Cmax: human, in vivo
[11] = 8 of 10 obese subjects and 3 of 10 normal controls; cited from earlier work
[12] = after vs before tumescent lidocaine exposure
[13] = post-op tumescent lidocaine exposure, single tests T3, T4, Patient 1
[14] = dilute drug after subcutaneous tumescent infiltration
[15] = 20 ml subcutaneous TI, 6 of 6 subjects, 6 days

## Nc1nc2c(ncn2COCCO)c(=O)[nH]1 [Acyclovir]
[1]; in vivo, sc
  clinically significant adverse effects: without any clinically significant adverse effects
  ecchymosis: no ecchymosis
  local tenderness upon palpation: no local tenderness
Herpes zoster
  duration of elimination of acute zoster pain: at least 12 hours

## Cc1nnc(SCC2=C(C(=O)O)N3C(=O)[C@@H](NC(=O)Cn4cnnn4)[C@H]3SC2)s1 [Cefazolin]
[2]; in vivo, sc
  adverse local or systemic effects: no adverse local or systemic effects
clinical
  Tmax: 8 to 12 h
[3]
  MIC: 125 to 250 µg/mL (≈ 0.275 to 0.55 mM)

## CCN(CC)CC(=O)Nc1c(C)cccc1C [Lidocaine]
[4]; Day 1, 1,000 mg/L, MRSA Inoculum 4.7 × 10^5 CFU/ml
  MRSA survival at test concentration (MBC test): +
[4]; Day 2, 1,000 mg/L, MRSA Inoculum 4.4 × 10^5 CFU/ml
  MRSA survival at test concentration (MBC test): +
[4]; Day 2, 5,000 mg/L, MRSA Inoculum 4.4 × 10^5 CFU/ml
  MRSA survival at test concentration (MBC test): +
[4]; Day 2, 10,000 mg/L, MRSA Inoculum 4.4 × 10^5 CFU/ml
  MRSA survival at test concentration (MBC test): 0
[4]; Staphylococcus aureus, 48 h, read-out: MBC end point
  MBC: 10000 µg/mL (≈ 42.7 mM)
Platelet function; after tumescent lidocaine exposure (Control BA = 541)
  Average Bleeding Area (BA): Lidocaine BA = 759
Platelet function; after tumescent lidocaine exposure (Control BT = 6)
  Average Bleeding Time (BT): Lidocaine BT = 5.75
Platelet function; [12]
  change in Average Bleeding Time (BT): essentially no change
  increase in Average Bleeding Area (BA): 40%
Platelet function; [13]
  Bleeding Area BA: 791.81 and 726.03
  Bleeding Time BT × 2: 10 and 13
[2]; [14]
  adverse local or systemic effects: no adverse local or systemic effects
[5]
  duration of therapeutic serum lidocaine concentrations: ≥ 12 h
Platelet aggregation; aggregation induced by ADP, epinephrine and collagen
  concentrations that consistently inhibit in-vitro platelet aggregation: ≥ 0.5 mg/mL
Platelet aggregation; safe systemic concentrations
  systemic concentrations with no effect on platelet aggregation: ≤ 6 micrograms/ml
[6]
  mean serum lidocaine concentration at complete analgesia: 3.79 ± 1.00 µg/mL
[7]
  duration of routine local anesthesia: ~2 h
[3]
  MIC: ~5000 µg/mL (≈ 21.3 mM)
[3]; read-out: MIC end point
  MIC: 5000 µg/mL (≈ 21.3 mM)

## Cc1ncc([N+](=O)[O-])n1CCO [Metronidazole]
[2]; in vivo, sc
  adverse local or systemic effects: no adverse local or systemic effects
[8]
  mean Tmax (time of Cmax in serum): 11
[9]
  concentration in subcutaneous fat: 600 to 1700 ng/mL
clinical
  Tmax: 10 to 12 h
[10]; 500 mg TAD vs 500 mg IVAD
  AUC∞ in TISF after TAD, times greater than in serum after IVAD: 8.1 times
[10]; 500 mg, Table 15B, Abdomen, TISF, TAD, 413 mg/L, with cefazolin
  AUC: 1030 µg·h/mL
[10]; 500 mg, Table 15B, Abdomen, serum, IVAD, with cefazolin
  AUC: 127 µg·h/mL
[10]; 500 mg, Table 15B, Abdomen, serum, TAD, 413 mg/L, with cefazolin
  AUC: 81 µg·h/mL
[10]; 500 mg, Cmax in tumescent interstitial fluid, TAD solution containing 500 mg of metronidazole
  Cmax: 370000 ng/mL
[10]; 500 mg, Cmax, Table 15B, Abdomen, TISF, TAD, 413 mg/L, with cefazolin
  Cmax: 160000 ng/mL
[10]; 500 mg, Cmax, Table 15B, Abdomen, serum, IVAD, with cefazolin
  Cmax: 14000 ng/mL
[10]; 500 mg, Cmax, Table 15B, Abdomen, serum, TAD, 413 mg/L, with cefazolin
  Cmax: 4800 ng/mL
[10]; 600 mg, Table 16B, Abdomen, serum, TAD, 172 mg/L, TAD dose 600 mg
  AUC: 81 µg·h/mL
[10]; 600 mg, Cmax, Table 16B, Abdomen, TISF, TAD, 172 mg/L, TAD dose 600 mg
  Cmax: 160000 ng/mL
[10]; 600 mg, Cmax, Table 16B, Abdomen, serum, IVAD dose 600 mg
  Cmax: 14000 ng/mL
[10]; 600 mg, Cmax, Table 16B, Abdomen, serum, TAD, 172 mg/L, TAD dose 600 mg
  Cmax: 4800 ng/mL
[10]; Table 16B, Abdomen, TISF, TAD + IVAD, 200 mg/L, TAD dose 400 mg, IVAD dose 200 mg
  AUC: 1130 µg·h/mL
[10]; Table 16B, Abdomen, serum, TAD + IVAD, 200 mg/L, TAD dose 400 mg, IVAD dose 200 mg
  AUC: 117 µg·h/mL
[10]; Cmax, Table 16B, Abdomen, TISF, TAD + IVAD, 200 mg/L, TAD dose 400 mg, IVAD dose 200 mg
  Cmax: 150000 ng/mL
[10]; Cmax, Table 16B, Abdomen, serum, TAD + IVAD, 200 mg/L, TAD dose 400 mg, IVAD dose 200 mg
  Cmax: 5900 ng/mL

## CO[C@@]1(NC(=O)Cc2cccs2)C(=O)N2C(C(=O)O)=C(COC(N)=O)CS[C@@H]21 [cefoxitin]
[11]
  subcutaneous bioavailability (AUC) of free drug after IVAD, times less than serum bioavailability: 10 times
[10]; 10×16, for a significant proportion of patients
  subcutaneous bioavailability by IVAD, times less than by TAD: approximately 160 times

## CNC[C@H](O)c1ccc(O)c(O)c1 [epinephrine]
[2]; [14]
  adverse local or systemic effects: no adverse local or systemic effects

## Gentamicin
[1]; [15]
  ecchymosis: no ecchymosis
  local tenderness upon palpation: no local tenderness
[1]; 20 ml subcutaneous TI, acyclovir 1 gm in 1130 ml, gentamicin 80 mg in 1110 ml tumescent lidocaine solution, 6 of 6 subjects
  stinging upon injection: no stinging
[1]; injected subcutaneously in a dilute tumescent solution
  clinically significant adverse effects: without any clinically significant adverse effects
